Tests used:
[1] = test system: E. coli strains with the cDNA encoding a herbicide-sensitive PPO (sensitive transformants); test: Colony formation of herbicide-sensitive E. coli SASX38 transformants on LB+ampicillin agar with compound; assay type: cell-based; conditions: particular concentration of Compound A, two days, compared to medium lacking Compound A
Source text: (§1) The plasmid vector containing the cDNA encoding a herbicide-sensitive PPO enzyme obtained in Example 2 or 9 is introduced into the mutant SASX38 strain of E. coli in which the endogenous the PPO gene (hemG locus) is deleted and herbicide-sensitive transformants are selected by the method in Example 2. Similarly, a cDNA encoding a herbicide-resistant PPO is obtained according to the method in Example 12, with a base pair alteration at the position of Val13 in SEQ. ID. NO.: 1, SEQ. ID. NO.: 2 and SEQ. ID. NO.: 3 resulting in the substitution of methionine for valine. Said cDNA is re-cloned in the plasmid vector pUC118 (Nishimura et al., J. Biol. Chem. 270: 8076 (1995)), and said plasmid vector is introduced into E. coli SASX38 to obtain herbicide-resistant transformants. Both sensitive and resistant transformants are separately plated on LB+ ampicillin agar medium supplemented with compound A at a given concentration, and incubated for two days. Colony formation is then evaluated to assess the growth of the sensitive and resistant transformants in the presence of the herbicide. […]

[2] = test system: E. coli strains with a cDNA encoding a herbicide-resistant PPO (resistant transformants); test: Colony formation of herbicide-resistant E. coli SASX38 transformants on LB+ampicillin agar with compound; assay type: cell-based; conditions: same concentration of Compound A, compared to medium free of Compound A
Source text: as §1

[3] = test system: Chlamydomonas reinhardtii GB-2951; test: Herbicide resistance test of GB-2951 grown in TAP liquid media with various concentrations of the compounds; assay type: cell-based; conditions: compared with wild type strain CC-125
Procedure: Resistance of GB-2951 to several herbicides was tested by growing the strain in TAP liquid media containing various concentration of the compounds, according to the method described by Shibata et al. (Research in Photosynthesis, Vol III, pp. 567-570, Murata ed., c. 1992 by Kluwer Academic Publisher, Dordrecht, Netherlands). […] Moreover, GB-2951 was crossed to wild type strain CC-124 and several sets of tetrads were isolated according to the method as described by Harris (Harris, E. H., The Chlamydomonas Sourcebook, c. 1989 by Academic Press, San Diego, Calif.). All tetrads segregated two herbicide (compound A) sensitive and two herbicide-resistant progeny. In addition, tetrads from a cross of GB-2951 to RS-322, a porphyria herbicide-resistant isolate from a cross of RS-3 and CC-124, yielded no herbicide-sensitive progeny.

[4] = test system: crop plants transformed with the herbicide-resistant PPO gene; test: Weed control test, crop phytotoxicity in greenhouse; assay type: in vivo; conditions: 100 g/ha; either method (soil surface after sowing, 27 days; sprayed onto plants at 18 days, 20 days)
Procedure: (§2) Flats with an area of 33×23 cm^2 and a depth of 11 cm are filled with upland field soil. Seeds of crop plants with herbicide-resistant PPO genes developed according to methods similar to those described in Example 16 are planted along with those of weeds such as Echinochloa crus-galli, Abutilon theophrasti and Ipomoea hederacea, and covered with 1-2 cm soil. Compounds of formulae 20 and 22 (wherein R is an ethyl group) of an amount of equivalent to 100 g/ha are dissolved in 20 volumes of a mixture of surfactant and liquid carrier, such as a mixture of calcium dodecylbenzenesulfonate/polyoxyethylene styrylphenyl ether/xylene/cyclohexanone=1:2:4:8 (v/v), and diluted with water of a volume equivalent to 10 L/ha, then sprayed on surface of the soil immediately after sowing. Test plants are grown in a greenhouse for 27 days after treatment to observe weed control activity and crop phytotoxicity of the test compounds.
Seeds of the aforementioned crop plants with herbicide-resistant PPO genes are planted along with those of weeds such as Echinochloa crus-galli, Abutilon theophrasti and Ipomoea hederacea, covered with soil of 1-2 cm deep, and the plants grown for 18 days in the greenhouse. […]

[5] = test system: Abutilon theophrasti; test: Weed control test in greenhouse; assay type: in vivo; conditions: 100 g/ha; either method (soil surface after sowing, 27 days; sprayed onto plants at 18 days, 20 days)
Procedure: as §2
(§3) Seeds of the aforementioned crop plants with herbicide-resistant PPO genes are planted along with those of weeds such as Echinochloa crus-galli, Abutilon theophrasti and Ipomoea hederacea, covered with soil of 1-2 cm deep, and the plants grown for 18 days in the greenhouse. Compounds of formulae 20 and 22 (wherein R is an ethyl group) of an amount of equivalent to 100 g/ha are dissolved in 20 volumes of a mixture of surfactant and liquid carrier, such as the mixture of calcium dodecylbenzenesulfonate/polyoxyethylene styrylphenyl ether/xylene/cyclohexanone=1:2:4:8 (v/v), and diluted with water of a volume equivalent to 10 L/ha, then sprayed onto plants from the above. Test plants are grown in a greenhouse for 20 days after treatment for observation of weed control activity and crop phytotoxicity by test compounds.

[6] = test system: Echinochloa crus-galli; test: Weed control test in greenhouse; assay type: in vivo; conditions: 100 g/ha; either method (soil surface after sowing, 27 days; sprayed onto plants at 18 days, 20 days)
Procedure: as §2, §3

[7] = test system: Ipomoea hederacea; test: Weed control test in greenhouse; assay type: in vivo; conditions: 100 g/ha; either method (soil surface after sowing, 27 days; sprayed onto plants at 18 days, 20 days)
Procedure: as §2, §3

Which results are given for `C#CCOc1cc(N2C(=O)C3=C(CCCC3)C2=O)c(F)cc1Cl` [compound A, [N-(4-chloro-2-fluoro-5-propargyloxy)phenyl-]3,4,5,6-tetrahydrophthalimide]?
growth of sensitive transformants [1]: strongly suppressed; growth of resistant transformants [2]: same level of growth; resistance or sensitivity of GB-2951 to the herbicide [3]: showed resistance

How did the “resistance or sensitivity of GB-2951 to the herbicide” value (“resistance or sensitivity” for short) [3] turn out when `C[n+]1ccc(-c2cc[n+](C)cc2)cc1` [paraquat] was run?
The value was “as sensitive”.

For `CC(C)OC(=O)c1cc(-n2c(=O)cc(C(F)(F)F)n(C)c2=O)ccc1Cl` [formula 20], which crop phytotoxicity [4] is on record?
The crop phytotoxicity was “no significant phytotoxicity”.

What about the “weed control activity (growth)” value [5] of the same compound?
The value was “inhibited”.

What about the “weed control activity (growth)” value [6] of the same compound?
Its value is “inhibited”.

What about the “weed control activity (growth)” value [7] of the same compound?
Its value is “inhibited”.

For `CN(C)C(=O)Nc1ccc(Cl)c(Cl)c1` [diuron], which “resistance or sensitivity” value [3] is on record?
The value was “as sensitive”.

`COC(=O)c1cc(Oc2ccc(C(F)(F)F)cc2Cl)ccc1[N+](=O)[O-]` [acifluorfen-methyl] was tested. Which “resistance or sensitivity” value [3] did it give?
The value was “showed resistance”.

Source: US7586023B1, “Methods of conferring ppo-inhibiting herbicide resistance to plants by gene manipulation” (Sumitomo Chemical Company, Limited, priority 1996, dated 2009)
